From article PMC7179183, “Design of Biphenyl-Substituted Diarylpyrimidines with a Cyanomethyl Linker as HIV-1 NNRTIs via a Molecular Hybridization Strategy” (Molecules, 2020)
Read-outs that look alike come from different tables or passages of the source.

Legend:
[1] = test system: E138K mutant HIV-1 strain; assay: Anti-HIV-1 activity against E138K mutant strain in MT-4 cells; format: cell-based; conditions: Human immunodeficiency virus 1, MT4, read-out: EC50 E138K
[2] = Cytotoxicity in uninfected MT-4 cells, MTT method; format: cell-based; conditions: human
Description: (§1) The newly synthesized compounds were evaluated for their potency and cytotoxicity against the WT HIV-1 (strain IIIB) in MT-4 cells using the MTT method. The biological evaluation results are represented as EC50 values (anti-HIV-1 activity), CC50 values (cytotoxicity), and SI values (selectivity index, CC50/EC50 ratio).

[3] = test system: K103N + Y181C double RT mutant HIV-1 strain; assay: Anti-HIV-1 activity against K103N + Y181C double mutant strain in MT-4 cells; format: cell-based; conditions: Human immunodeficiency virus 1, MT4, read-out: EC50 K103N + Y181C
[4] = cited from earlier work
WT HIV-1 (strain IIIB) = assay: microbe, parasite or virus in culture; format: cell-based
Description: as §1

[5] = test system: L100I mutant HIV-1 strain; assay: Anti-HIV-1 activity against L100I mutant strain in MT-4 cells; format: cell-based; conditions: Human immunodeficiency virus 1, MT4, read-out: EC50 L100I
[6] = test system: Y181C mutant HIV-1 strain; assay: Anti-HIV-1 activity against Y181C mutant strain in MT-4 cells; format: cell-based; conditions: Human immunodeficiency virus 1, MT4, read-out: EC50 Y181C
[7] = test system: Y188L mutant HIV-1 strain; assay: Anti-HIV-1 activity against Y188L mutant strain in MT-4 cells; format: cell-based; conditions: Human immunodeficiency virus 1, MT4, read-out: EC50 Y188L
[8] = test system: K103N mutant HIV-1 strain; assay: Anti-HIV-1 activity against K103N mutant strain in MT-4 cells; format: cell-based; conditions: Human immunodeficiency virus 1, MT4, read-out: EC50 K103N
[9] = test system: F227L + V106A double RT mutant HIV-1 strain; assay: Anti-HIV-1 activity against F227L + V106A double mutant strain in MT-4 cells; format: cell-based; conditions: Human immunodeficiency virus 1, MT4, read-out: EC50 F227L + V106A
WT HIV-1 = conditions: cited from earlier work
[10] = uninfected MT-4 cells, viability reduced by 50%, read-out: CC50
[11] = statement in the introduction, no reference given
[12] = Human immunodeficiency virus 1, IIIB, MT4, MT-4 cells, protection against virus-induced cytopathicity by 50%, mean of at least three experiments, read-out: EC50 HIV-1 IIIB

Structure (SMILES) | EC50 [1] [nM] | CC50 [2, 10] [nM] | EC50 [3] [nM] | CC50 [4, 11] [nM] | EC50 (WT HIV-1 (strain IIIB); [12]) [nM] | EC50 [5] [nM] | EC50 [6] [nM] | EC50 [7] [nM] | EC50 [8] [nM] | EC50 [9] [nM] | CC50 [2] [nM] | CC50 ([4]; lead compound) [nM] | EC50 (WT HIV-1; read-out: EC50 WT HIV-1) [nM] | EC50 (WT HIV-1; read-out: EC50 anti-HIV potency) [nM] | EC50 (WT HIV-1 (strain IIIB); Human immunodeficiency virus 1, MT4, read-out: EC50 HIV-1 IIIB) [nM]
Cc1cc(/C=C/C#N)cc(C)c1Nc1ccnc(Nc2ccc(C#N)cc2)n1 [RPV, rilpivirine, reference compound] | 3 ± 1 | 5890 ± 310 | 9 ± 2 | ~6000 | 1.6 ± 0.3 | 2 ± 1 | 3 ± 1 | 30 ± 9 | 1 ± 0.2 | 44 ± 12 | – | – | – | – | –
Nc1ccn([C@@H]2CS[C@H](CO)O2)c(=O)n1 [Compound 3TC, lamivudine, reference compound] | 5060 ± 900 | – | 5500 ± 1310 | – | 7880 ± 3150 | 1960 ± 290 | 4740 ± 1310 | 3420 ± 950 | 3980 ± 760 | 2690 ± 870 | > 87200 | – | – | – | –
Cc1cc(-c2ccc(C#N)cc2)cc(C)c1Nc1ccnc(Nc2ccc(C#N)cc2)n1 [Compound 2] | – | – | – | – | – | – | – | – | – | – | – | 2100 | 1 ± 0.6 | – | –
Cc1cc(C(C#N)c2ccccc2F)nc(Nc2ccc(C#N)cc2)n1 (centres unmarked) [Compound 1] | – | – | – | – | – | – | – | – | – | – | – | – | – | 1.8 | –
Cc1cc(C#N)cc(C)c1Oc1nc(Nc2ccc(C#N)cc2)nc(N)c1Br [ETR, etravirine, reference compound] | 8 ± 4 | > 4600 | 40 ± 10 | ~6000 | – | 8 ± 2 | 17 ± 3 | 17 ± 6 | 3 ± 1 | 14 ± 5 | – | – | – | – | 4.5 ± 1
